As usually defined, the Cmax is the maximum level reached in the sampled fluid or tissue. For orientation: Tmax means the time at which the peak concentration occurs. The bioavailability is the share of a dose that reaches the circulation, judged against a reference dose that is usually intravenous.

The nature of series [1]: DPPH free radical-scavenging/antioxidant assay. It counts as biochemical. As to conditions: 50 μM DPPH in 80% methanol; 24 h time point; read-out: EC50 (concentration at which a compound reduces by 50% the peak absorbance of DPPH at 520 nm). A digest of the protocol:
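Compounds diluted 100-fold from DMSO stocks into 50 μM DPPH in 80% methanol; absorbance at 520 nm followed kinetically to steady state, with the 24 h reading used. EC50 interpolated from OD520 versus concentration; Trolox, BHA, PBN and S-PBN as positive controls, DMSO as vehicle.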
(DPPH is a stable violet radical that fades when it is reduced.)

Series [2] can be described thus: Pharmacokinetic evaluation following intravenous and oral administration in rats. The class given is in vivo. As to conditions: male, Sprague-Dawley; for Cmax / Tmax / bioavailability: 5 mg/kg; for Cmax: rat plasma; for Cmax / Tmax: oral gavage, 2 mg/mL at 2.5 mL/kg; for clearance / Vd / Tmax / bioavailability / half-life: plasma, rat; for clearance / Vd / half-life: 1 mg/kg; for clearance / Vd: intravenous administration, 1 mg/mL at 1.0 mL/kg; for clearance: read-out: CI (clearance) (converted); for Vd: read-out: Vd (volume of distribution); for bioavailability: po 2 mg/mL at 2.5 mL/kg vs iv 1 mg/mL at 1.0 mL/kg, dose-normalized, read-out: F (%) oral bioavailability; for half-life: intravenous, read-out: T1/2 elimination half life (converted). Put shortly: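 Male Sprague-Dawley rats, fasted, dosed iv (1 mg/mL formulation, 1.0 mL/kg, jugular or tail vein) or by oral gavage (2 mg/mL suspension, 2.5 mL/kg). Plasma sampled from 2 min to 480 min, some to 24 h, and quantified by LC-MS/MS (MRM). Parameters from noncompartmental analysis.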

Series [3] is described as follows: Solubility measurement at pH 7.4. It counts as physicochemical. The settings on record: aqueous buffer, thermodynamic from solid, phosphate buffer pH 7.4, room temperature. As for the experimental part:
Nitrone compounds (>3 mg) of this invention were mixed with a phosphate buffer at pH 7.4 to make a >0.3 mg/mL mixture. The mixture was vortexed for more than 2 hours and equilibrated over 12 hours at room temperature. The equilibrated mixture was used to saturate a 0.45 μm Tuffryn syringe filter. After saturating, the remainder of the mixture was filtered through the saturated filter. The filtrate was diluted by 1, 10, 100, and 1000 fold and analyzed using a LC/MS/MS method with standard curve ranging from 1 to 1000 ng/mL.

A short description of series [4]: Microsomal stability in human liver microsomes. The class given is in vitro ADME. As to conditions: NADPH, 37° C. As to the method: Frozen Sprague-Dawley rat liver microsomes (RLM) were thawed on ice and gently mixed before use. The final reaction mixture consisted of a nitrone compound of this invention (at ˜500 ng/ml), 1 mM NADPH, and 0.5 mg/ml of RLM protein in 0.1 M PBS (pH7.4), with organic solvent concentration not exceeding 1% (v/v). Per set of incubations, a positive control compound was included. The mixture was first pre-incubated 3 to 5 minutes at 37° C. without NADPH, and the reaction was then initialized by the addition of NADPH and incubated at 37° C. for up to 30 minutes. An aliquot of the reaction mixture was sampled at the initiation of the reaction and at designated time after reaction started. The drawn samples were quenched with acetonitrile, diluted with mobile phase to ensure the detection of test article in the linear range, and analyzed by LC/MS/MS. Half-life or percentage of remaining nitrone compound was calculated using standard methods. A similar method, or a slight variation of it, was used to test the stability of nitrones in human liver microsomes (HLM).
Background: Microsomes from liver hold many membrane-bound enzymes, among them those of drug oxidation.

The test system of series [5] is CCI rats. Briefly: Mechanical allodynia in mononeuropathic pain model (chronic constrictive injury, CCI, Bennett model). The class given is in vivo, SD rats. The settings on record: for anti-allodynic effect on ipsilateral hind paw vs vehicle (in words): single dose 50 mg/kg, p.o.; for PWT ipsilateral hind paw (von Frey): 50 mg/kg p.o. single dose, mean ± SEM. From the text:
Adult male SD rats weighing 250-300 gm (Charles River Laboratories, San Diego, Calif.) were used. The animal room was lighted artificially at a 12-hr light-dark cycle (7:00 A.M. to 7:00 P.M) with water and food supply ad libitum. Animals were allocated randomly into groups. Seven days before establishing the mononeuropathic pain disease model, rats were trained on a metal mesh floor, covered with a plastic box (10×10×18 cm) 1-2 hr per day to habituate. During the habituating phase, non-painful tactile stimulation on the plantar surface of each hind paw was induced by a set of calibrated von Frey filaments, through the mesh floor, as described in example 2.
Following the 7-day training phase, the animals were anesthetized by i.p. injection of sodium pentobarbital (65 mg/kg, Abbott Lab, Chicago, Ill.). Under aseptic procedures, the skin of the left thigh was cut open for ˜2 cm. Mid-thigh level of the common sciatic nerve was exposed after blunt separation of the muscles. Two 4-0 silk and one 4-0 chromic gut sutures (both from Ethicon, Somerville, N.J.) were loosely ligated around the nerve, with a 1-1.5 mm interval between each of them. Skin wound was then close with wound clips. The right side (i.e., the contralateral side) was not surgically injured. After recovery from surgery, rats showing post-surgery neurological deficits or poor grooming were excluded from the experiments. This surgical procedure (i.e., chronic constrictive injury, CCI, or Bennett model) to establish mononeuropathic pain disease model has been described elsewhere (Bennett, G. J. and Xie, Y. K.: A peripheral mononeuropathy in rat that produces disorders of pain sensation like those seen in man. Pain, 33: 87-107, 1988).
On days 1, 3, 4, 7, 9, 11, and 14 after surgery, animals were tested for mechanical allodynia with von Frey filaments as described previously. On or around post-surgical day 14, the ipsilateral hind paw, felt to 5 grams, an indication of allodynia began to manifest mechanical allodynia (i.e., amplified response to non-painful tactile stimulation by von Frey filaments). The contralateral hind paws remained above the 5-gram level (i.e., no allodynia).
After manifestation of this allodynia, Compound 62 (50 mg/kg, p.o.), Compound 63 (50 mg/kg, p.o.), Compound 66 (50 mg/kg, p.o.), Compound 23 (50 mg/kg, p.o.), 4-hydroxy-tempol (TEMPOL, 50 mg/kg, p.o.), or piroxicam (a COX1 inhibitor, 50 mg/kg, p.o.) were administered to randomly-assigned animals. Changes of mechanical allodynia in the ipsilateral hind paw were recorded at several time points over the course of up to 24 hr.

The test system of series [6] is carrageenan-sensitized inflammatory model of rat. Description: Carrageenan-sensitized thermal hyperalgesia (Hargreaves test). The class given is in vivo. The settings on record: 30 mg/kg oral, data not shown. As for the experimental part:
In this experiment, animals were habituated to the test environment for 2 days. Each rat was individually placed on a transparent perplex glass floor, covered with a plastic box (10×10×18 cm), and allowed 0.5-1 hr to habituate. After the acclimation period, basal thermal withdrawal latency (PWL, time interval between heat stimulation and paw withdrawal) was measured by exposing the plantar surface of a rats hind paw to a beam of radiant heat generated from a focused projection bulb through a transparent perplex glass surface (Hargreaves test; Hargreaves, K. R., Dubner, R., Brown, F., Flores, C. & Joris, J.: A new and sensitive method for measuring thermal nociception in cutaneous hyperalgesia. Pain, 32: 77-88, 1988). The PWL was averaged from at least two trials separated by a 2 min interval. A timer was used to measure the withdrawal latency and a cut of time of 20-sec was used to prevent tissue damage. Before the test on STZ-diabetic rats, the intensity of the radiating heat was adjusted to the level that caused naive animal to withdraw its paw at around 10 seconds.
After a stable basal PWL was obtained, the animals were briefly anesthetized with isoflurane (2-5% to effect). One side of their hind paws received an intraplantar injection of lambda carrageenan (2 mg in 100 microliter sterile saline, Sigma, St. Louis, Mo.). The contralateral side received no injection and served as an intra-subject control. The animals were then returned to their home cages and transferred to the individual testing chambers for heat thermal hyperalgesic testing, 2.5 hr after carrageenan injection. 3-hr post-carrageenan injection, PWLs of both hind paws (i.e., ipsilateral and contralateral) were measured at several time points post-carrageenan injection (15-min to 24-hr).
For compound testing, rats were randomly enrolled into groups that, immediately after the 3-hr post-carrageenan PWL was obtained, received oral dosing of Compound 62 (50 mg/kg), Compound 63 (50 mg/kg), vehicle (1 ml/kg), or indomethacin (30 mg/kg). Compound 62 and Compound 63 were prepared as a suspension in vehicle (96% of 0.5% CMC and 4% of 10% Tween 80) while indomethacin was prepared as a 30 mg/ml in normal saline.

Setting [7] is: read-out: Solubility @ pH 7.4 (μg/mL).

Molecules are shown by their SMILES. Where two headings read alike, the source gives them in different places. Where only a bound is given, the exact number is not on record here.

Take `CC(C)(C)/[N+]([O-])=C/c1cccnc1S(C)(=O)=O` [Compound 73, N-tert-Butyl-C-(2-methanesulfonyl-pyridine-3-yl)nitrone]: the EC50 in series [1] is greater than 1000 µM. In series [2], the concentration peaked (Cmax) at 4170 ng/mL, the clearance was 3.33 mL/min/kg, the Vd was 0.8 L/kg and the Tmax is 85.2 min. Moreover, in series [2], the bioavailability came out at 72.2% and the half-life is 166 min. Moreover, the solubility in series [3] (read-out: Solubility @ pH 7.4) is greater than 11300 µM. The solubility in series [3] (setting [7]) was greater than 2900 µg/mL. The “% of Nitrone Remaining at 30 min (Human)” value in series [4] worked out at 100%.

As for `CN1C(C(=O)Nc2ccccn2)=C(O)c2ccccc2S1(=O)=O` [piroxicam, reference compound], in series [5], the “anti-allodynic effect on ipsilateral hind paw vs vehicle (in words)” value is reported as “long-lasting anti-allodynic effect”.

Turning to `COc1ccc2c(c1)c(CC(=O)O)c(C)n2C(=O)c1ccc(Cl)cc1` [indomethacin, reference compound], in series [6], the “effect on carrageenan-sensitized heat hyperalgesia (in words)” value is given as “significantly reversed carrageenan-sensitized heat hyperalgesia”.

As to `CS(=O)(=O)c1ncccc1/C=[N+](\[O-])C1CCCCC1` [Compound 76, N-Cyclohexyl-C-(2-methanesulfonyl-pyridine-3-yl)nitrone], the EC50 in series [1] is greater than 1000 µM. The figures for the solubility in series [3] (read-out: Solubility @ pH 7.4) and in series [3] (setting [7]) were greater than 4070 µM and greater than 1150 µg/mL, respectively. Also, the “% of Nitrone Remaining at 30 min (Human)” value in series [4] is 90.5%.

For `CC(C)(C)/[N+]([O-])=C/c1ccccc1S(=O)(=O)N1CCCc2ccccc21` [Compound 44, N-tert-Butyl-C-[2-(3,4-dihydro-2H-quinoline-1-sulfonyl)phenyl]nitrone], the EC50 in series [1] is greater than 1000 µM. Also, the solubility in series [3] (read-out: Solubility @ pH 7.4) amounted to 156 µM; in series [3] (setting [7]), 58.1 µg/mL. Further, in series [4], the “% of Nitrone Remaining at 30 min (Human)” value is recorded as 0%.

On to `CS(=O)(=O)c1ncccc1/C=[N+](\[O-])Cc1ccccc1` [Compound 75, N-Benzyl-C-(2-methanesulfonyl-pyridine-3-yl)nitrone], for which, in series [1], the EC50 was greater than 1000 µM. Further, in series [2], the highest level (Cmax) was 1030 ng/mL, the clearance is 21.8 mL/min/kg, the Vd was determined as 1.07 L/kg and the Tmax turned out to be 11.4 min. Also, in series [2], the bioavailability was found to be 50.2% and the half-life is 34.2 min. Further, in series [3] (read-out: Solubility @ pH 7.4), the solubility is 2920 µM. Also, the solubility in series [3] (setting [7]) was 848 µg/mL. Also, the “% of Nitrone Remaining at 30 min (Human)” value in series [4] is on record as 95.1%.

As for `CC(C)(C)/[N+]([O-])=C/c1cc2ccccc2nc1S(C)(=O)=O` [Compound 74, N-tert-Butyl-C-(2-methanesulfonyl-quinoline-3-yl)nitrone], the EC50 in series [1] was greater than 1000 µM. In series [2], the Cmax is 12 ng/mL, the clearance was 376 mL/min/kg, the Vd came to 10.7 L/kg and the Tmax amounted to 11.4 min. For the same molecule, in series [2], the bioavailability came out at 9.4% and the half-life was 19.2 min. The solubility in series [3] (read-out: Solubility @ pH 7.4) turned out to be 96 µM. The solubility in series [3] (setting [7]) is 29.4 µg/mL. For the same molecule, the “% of Nitrone Remaining at 30 min (Human)” value in series [4] came to 75.7%.

In the case of `CC1(C)CC(O)CC(C)(C)N1[O]` [TEMPOL, 4-hydroxy-tempol, reference compound], the “PWT ipsilateral hind paw (von Frey)” value in series [5] (post-dosing time 30 min) was 4.80 ± 0.49 gm; in series [5] (post-dosing time 60 min), 4.80 ± 0.49 gm; in series [5] (post-dosing time 300 min), 5.48 ± 1.09 gm; in series [5] (post-dosing time 1440 min), 4.80 ± 1.02 gm; in series [5] (post-dosing time −15 min (pre-dose)), 4.00 ± 0.89 gm. The “anti-allodynic effect on ipsilateral hind paw vs vehicle (in words)” value in series [5] is listed as “no significant anti-allodynic effect”.

The record behind these values is US20100168112A1, “2-Substituted and 4-substituted aryl nitrone compounds” (RENOVIS, INC., priority 2004, published 2010).
